Assays:
CD37 and FcγRIIIa (CD16) = assay: Simultaneous binding of TRU-016 to CD37 and FcγRIIIa (CD16) on Daudi cells; parameters: species or system human; details: CS 0-800 μM in culture; response up to 400 μM, at which point the binding appears to level off
Procedure: TRU-016 produced as described in Example 8 was tested in the following assay, which simultaneously evaluates the ability of the TRU-016 binding domain to bind to a CD37 expressing target cell and the ability of the Fc portion of the TRU-016 SMIP to bind a fusion protein of human CD16 and murine IgG Fc.
The target cell utilized is the Daudi (ATCC CRL-213) cell line. Daudi cells are a human B-lymphoblastoid cell line derived from a Burkitt's lymphoma and express high levels of CD37. The custom soluble CD16:MuIgGFc fusion protein is human CD16 (low affinity polymorphism) linked to a murine IgG Fc.
The appropriate number of Daudi cells (350,000/well times the number of wells) is aliquoted and centrifuged at 250×g for 5 minutes at 15° C. The supernatant is removed. One percent cold paraformaldehyde is prepared by diluting the 4% stock from USB (USB US19943) 1:4 with FACS Buffer. FACS Buffer is prepared by adding 2% FBS (Gibco) to Dulbecco's PBS (Invitrogen) (v/v) and sterile filtering with a 0.22 μm filter. FACS Buffer is stored and used at 4° C. […]
Each sample's bound fluorescence is measured on a BD FACSCalibur flow cytometry system and analyzed with Cell Quest Pro software (Becton Dickinson, ver 5.2). The GeoMean fluorescence intensity for each sample is plotted relative to the TRU-016 concentration. […]

CD37 = assay: Binding of TRU-016 to CD37 expressing Daudi cells; parameters: species or system human; details: CS 25-800 μM in culture
Procedure: The cells are then incubated with a FITC-conjugated goat anti-human IgG Fc specific antibody (Caltag H 10501). This antibody will bind to the Fc region of the human IgG chain of TRU-016 bound to the cells. The antibody is diluted 1:50 in FACS buffer and 100 μL is added to each well. The plate is incubated at 4° C. in the dark for 45 minutes. Any unbound FITC-labeled antibody is removed by adding 100 μL of FACS buffer to each well, centrifuging at 250×g for 3 minutes at 15° C. followed by removal of supernatant. This is followed by a second wash with 200 μL/well FACS buffer. The cells are resuspended with 200 μL/well 2% paraformaldehyde and stored at 4° C. overnight. Each sample's bound fluorescence is measured on a BD FACSCalibur flow cytometry system and analyzed using Cell Quest Pro software (Becton Dickinson, ver 5.2). The GeoMean fluorescence intensity for each sample is plotted relative to the TRU-016 concentration. A dose response curve is generated and fit to a 4-parameter logistic (4-PL) curve using the SoftMax Pro software (Molecular Devices, ver 5.0.1). Titrations of TRU-016 are utilized to create a dose response curve of the untreated control and CS treated samples for comparison.

[1] = parameters: species or system BALB/c mice; details: mouse, in vivo, iv, 200 ug
Procedure: Female BALB/c mice were injected i.v. with 200 μg of TRU-016 test protein (TRU-016 produced by untreated CHO cells or by CHO cells treated with 200 μM DMJ, […] or 200 μM castanospermine) at time 0. Serum samples were collected (3 mice per time point) at 15 min, 2, 6, 24, 48, 72, 96, and 192 hours post injection. The serum concentration of each TRU-016 test sample was determined in a FACS-based binding assay using the CD37+ Ramos human cell line. CD37+ Ramos cells (5×10^5 cells/well) were incubated in 96 well flat bottom plates along with the serum sample to be tested. Spiked serum samples were used for the standard curves. Cells were incubated at 4° C. for an hour and washed before addition of the detection antibody. Binding of TRU-016 test protein to CD37+ Ramos cells was detected using a fluorescein-conjugated goat anti-human IgG Fcγ fragment-specific antibody. Standard curves were used to construct a binding curve as a function of antigen concentration. Briefly, standard curves consisted of various known concentrations of the TRU-016 test protein spiked into normal mouse serum diluted 1:20 in FACS buffer. The standard curves were run in duplicate on each plate. Mean fluorescence intensities (MFI) from the FACS analysis were imported into Softmax Pro software and were used to calculate serum concentrations of the TRU-016 test protein.

Compound | simultaneous binding of TRU-016 to CD37 and CD16 (GeoMean fluorescence, D-parameter) (CD37 and FcγRIIIa (CD16)) | dose response binding curves of TRU-016 to CD37 expressing cells, compared with untreated TRU-016 sample (CD37) | effect of carbohydrate modifier on half-life or other pharmacokinetic parameters [1]
O[C@H]1[C@H](O)[C@@H](O)CN2CC[C@H](O)[C@H]12 [castanospermine] | dose-dependent binding response | did not alter | –
TRU-016: recombinant single chain protein (SMIP) that binds CD37; G28-1 binding domain, modified hinge, human IgG1 CH2 and CH3; SEQ ID NO: 2 | – | – | no significant effect

Source: patent publication US20100150948A1, “MATERIALS AND METHODS FOR IMPROVED IMMUNOGLYCOPROTEINS” (TRUBION PHARMACEUTICALS, INC., priority 2006, published 2010)
